Laboratory results reported in ChEMBL document CHEMBL5291721, “A preclinical secondary pharmacology resource illuminates target-adverse drug reaction associations of marketed drugs” (Nat Commun, 2023).

Assays:
[1] = molecular target: T1, Alpha-1A adrenergic receptor (Homo sapiens, UniProt P35348)
T1 sequence (P35348 whole entry): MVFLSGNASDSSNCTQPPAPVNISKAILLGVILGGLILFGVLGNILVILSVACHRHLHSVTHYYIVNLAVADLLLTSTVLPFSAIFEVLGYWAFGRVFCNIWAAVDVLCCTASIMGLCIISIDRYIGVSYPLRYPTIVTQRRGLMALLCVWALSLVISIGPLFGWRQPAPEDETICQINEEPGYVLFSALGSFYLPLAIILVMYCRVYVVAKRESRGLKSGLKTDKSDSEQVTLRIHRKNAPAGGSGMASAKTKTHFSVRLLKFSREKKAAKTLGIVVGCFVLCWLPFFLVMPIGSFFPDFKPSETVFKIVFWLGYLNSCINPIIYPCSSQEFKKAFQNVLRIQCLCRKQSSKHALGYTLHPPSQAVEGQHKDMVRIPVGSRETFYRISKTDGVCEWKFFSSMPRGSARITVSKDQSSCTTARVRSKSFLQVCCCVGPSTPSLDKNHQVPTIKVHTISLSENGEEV

[2] = molecular target: Mu-type opioid receptor (Homo sapiens, UniProt P35372)
[3] = molecular target: T2, 5-hydroxytryptamine receptor 1A (Homo sapiens, UniProt P08908)
T2 sequence (P08908 whole entry): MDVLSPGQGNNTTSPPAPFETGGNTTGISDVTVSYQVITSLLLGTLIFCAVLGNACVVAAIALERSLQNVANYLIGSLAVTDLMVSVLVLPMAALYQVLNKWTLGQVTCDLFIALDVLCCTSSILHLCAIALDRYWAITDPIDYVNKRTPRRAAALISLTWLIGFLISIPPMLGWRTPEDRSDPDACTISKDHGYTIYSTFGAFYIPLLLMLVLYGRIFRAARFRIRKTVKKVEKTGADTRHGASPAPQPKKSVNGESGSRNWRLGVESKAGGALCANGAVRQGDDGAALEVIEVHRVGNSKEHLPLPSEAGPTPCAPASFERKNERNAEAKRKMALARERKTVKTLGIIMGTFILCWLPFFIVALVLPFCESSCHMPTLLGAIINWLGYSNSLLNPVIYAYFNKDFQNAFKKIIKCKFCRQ

[4] = molecular target: Beta-2 adrenergic receptor (Homo sapiens, UniProt P07550); format: functional, cell-based
[5] = molecular target: T3, Cannabinoid receptor 1 (Homo sapiens, UniProt P21554); format: functional, cell-based
[6] = molecular target: T3, Cannabinoid receptor 1
[7] = molecular target: D(1A) dopamine receptor (Homo sapiens, UniProt P21728); format: functional, cell-based
[8] = molecular target: T4, Estrogen receptor (Homo sapiens, UniProt P03372)
T4 sequence (P03372 whole entry): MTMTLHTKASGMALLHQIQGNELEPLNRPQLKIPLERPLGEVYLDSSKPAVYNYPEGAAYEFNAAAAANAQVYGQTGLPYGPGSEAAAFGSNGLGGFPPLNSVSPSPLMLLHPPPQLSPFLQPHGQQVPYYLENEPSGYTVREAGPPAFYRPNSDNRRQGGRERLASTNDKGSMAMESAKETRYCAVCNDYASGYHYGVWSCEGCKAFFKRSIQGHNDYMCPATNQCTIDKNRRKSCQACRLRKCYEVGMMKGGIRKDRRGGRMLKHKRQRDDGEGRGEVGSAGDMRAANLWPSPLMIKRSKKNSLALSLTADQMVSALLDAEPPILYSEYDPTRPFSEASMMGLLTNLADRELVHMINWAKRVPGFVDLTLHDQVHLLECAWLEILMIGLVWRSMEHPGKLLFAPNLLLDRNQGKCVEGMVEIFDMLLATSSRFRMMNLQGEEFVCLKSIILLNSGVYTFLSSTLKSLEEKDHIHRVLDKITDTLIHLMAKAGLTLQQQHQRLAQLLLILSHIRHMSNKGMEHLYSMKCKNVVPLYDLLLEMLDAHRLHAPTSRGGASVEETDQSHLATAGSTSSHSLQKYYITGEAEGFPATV

[9] = molecular target: T2, 5-hydroxytryptamine receptor 1A; format: functional, cell-based
[10] = molecular target: T5, 5-hydroxytryptamine receptor 2A (Homo sapiens, UniProt P28223); format: functional, cell-based
[11] = molecular target: T5, 5-hydroxytryptamine receptor 2A; format: functional, cell-based; remark: listed apart in the source
[12] = molecular target: Melanocortin receptor 4 (Homo sapiens, UniProt P32245)
[13] = molecular target: Motilin receptor (Homo sapiens, UniProt O43193)
[14] = molecular target: T3, Cannabinoid receptor 1; format: functional, cell-based; remark: listed apart in the source
[15] = molecular target: T6, Endothelin-1 receptor (Homo sapiens, UniProt P25101)
T6 sequence (P25101 whole entry): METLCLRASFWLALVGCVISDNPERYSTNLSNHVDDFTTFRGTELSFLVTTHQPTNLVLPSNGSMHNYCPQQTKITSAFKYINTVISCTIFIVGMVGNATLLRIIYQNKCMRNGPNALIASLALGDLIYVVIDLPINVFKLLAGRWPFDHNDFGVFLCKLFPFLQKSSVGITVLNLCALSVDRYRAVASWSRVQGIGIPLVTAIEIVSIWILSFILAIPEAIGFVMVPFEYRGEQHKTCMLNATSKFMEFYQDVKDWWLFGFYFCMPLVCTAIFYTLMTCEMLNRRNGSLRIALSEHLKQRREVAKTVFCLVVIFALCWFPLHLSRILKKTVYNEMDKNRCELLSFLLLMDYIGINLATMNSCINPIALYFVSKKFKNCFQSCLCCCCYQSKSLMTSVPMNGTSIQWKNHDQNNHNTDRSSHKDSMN
Also: assay procedure not described here.

Sequence of Motilin receptor (O43193 whole entry): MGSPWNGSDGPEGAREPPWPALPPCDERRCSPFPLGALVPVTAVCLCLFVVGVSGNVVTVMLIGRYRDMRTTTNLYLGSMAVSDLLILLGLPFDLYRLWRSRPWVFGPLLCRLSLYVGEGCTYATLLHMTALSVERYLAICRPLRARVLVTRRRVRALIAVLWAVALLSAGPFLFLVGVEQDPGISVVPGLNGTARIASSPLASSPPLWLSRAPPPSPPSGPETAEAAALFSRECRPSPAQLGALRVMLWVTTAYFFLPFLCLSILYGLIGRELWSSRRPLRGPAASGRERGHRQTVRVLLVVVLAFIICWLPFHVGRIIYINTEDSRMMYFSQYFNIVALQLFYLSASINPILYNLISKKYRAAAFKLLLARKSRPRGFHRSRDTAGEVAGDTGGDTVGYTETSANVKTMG
Sequence of Melanocortin receptor 4 (P32245 whole entry): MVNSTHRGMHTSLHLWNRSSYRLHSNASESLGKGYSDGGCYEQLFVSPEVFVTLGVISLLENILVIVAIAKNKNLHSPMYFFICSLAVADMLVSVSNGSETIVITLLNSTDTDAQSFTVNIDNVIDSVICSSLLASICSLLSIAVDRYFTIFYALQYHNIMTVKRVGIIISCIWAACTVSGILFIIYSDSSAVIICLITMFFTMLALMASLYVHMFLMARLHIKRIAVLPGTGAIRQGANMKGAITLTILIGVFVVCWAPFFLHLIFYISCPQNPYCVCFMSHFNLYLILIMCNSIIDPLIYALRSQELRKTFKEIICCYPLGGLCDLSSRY
T3 sequence (P21554 whole entry): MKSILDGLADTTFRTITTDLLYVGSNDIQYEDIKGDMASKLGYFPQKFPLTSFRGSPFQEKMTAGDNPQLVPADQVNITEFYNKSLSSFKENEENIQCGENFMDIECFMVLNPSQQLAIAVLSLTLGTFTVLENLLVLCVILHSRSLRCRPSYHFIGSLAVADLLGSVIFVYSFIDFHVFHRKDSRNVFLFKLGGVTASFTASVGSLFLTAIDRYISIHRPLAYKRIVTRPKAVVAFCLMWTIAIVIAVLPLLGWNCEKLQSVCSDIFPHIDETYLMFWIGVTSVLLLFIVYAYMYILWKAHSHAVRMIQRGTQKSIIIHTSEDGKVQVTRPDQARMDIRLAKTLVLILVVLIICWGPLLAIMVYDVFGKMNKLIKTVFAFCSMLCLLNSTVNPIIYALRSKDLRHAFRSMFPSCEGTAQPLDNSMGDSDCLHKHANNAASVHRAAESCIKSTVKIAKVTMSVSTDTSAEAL
Sequence of Mu-type opioid receptor (P35372 whole entry): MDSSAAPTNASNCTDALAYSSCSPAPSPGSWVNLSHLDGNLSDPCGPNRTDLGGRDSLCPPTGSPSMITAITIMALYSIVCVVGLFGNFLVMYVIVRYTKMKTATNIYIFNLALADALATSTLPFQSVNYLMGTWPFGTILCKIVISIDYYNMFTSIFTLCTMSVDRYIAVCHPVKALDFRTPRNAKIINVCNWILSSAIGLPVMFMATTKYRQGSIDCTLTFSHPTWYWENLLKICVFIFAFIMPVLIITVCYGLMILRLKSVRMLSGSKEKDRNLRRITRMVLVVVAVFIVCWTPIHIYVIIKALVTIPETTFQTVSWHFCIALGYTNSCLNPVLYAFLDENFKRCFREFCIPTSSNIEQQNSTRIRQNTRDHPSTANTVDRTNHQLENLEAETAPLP
Sequence of Beta-2 adrenergic receptor (P07550 whole entry): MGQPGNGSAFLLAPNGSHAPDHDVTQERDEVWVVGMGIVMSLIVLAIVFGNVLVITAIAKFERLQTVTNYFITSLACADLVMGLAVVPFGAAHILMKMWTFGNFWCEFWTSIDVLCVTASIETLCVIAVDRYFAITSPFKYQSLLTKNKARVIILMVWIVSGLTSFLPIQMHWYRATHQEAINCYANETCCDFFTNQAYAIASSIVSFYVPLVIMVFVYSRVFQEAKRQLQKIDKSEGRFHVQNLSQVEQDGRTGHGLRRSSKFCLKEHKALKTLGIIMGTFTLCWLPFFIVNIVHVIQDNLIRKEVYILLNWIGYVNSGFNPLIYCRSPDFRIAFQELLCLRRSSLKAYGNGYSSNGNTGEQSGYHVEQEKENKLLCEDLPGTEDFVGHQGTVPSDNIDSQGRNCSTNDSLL
Sequence of D(1A) dopamine receptor (P21728 whole entry): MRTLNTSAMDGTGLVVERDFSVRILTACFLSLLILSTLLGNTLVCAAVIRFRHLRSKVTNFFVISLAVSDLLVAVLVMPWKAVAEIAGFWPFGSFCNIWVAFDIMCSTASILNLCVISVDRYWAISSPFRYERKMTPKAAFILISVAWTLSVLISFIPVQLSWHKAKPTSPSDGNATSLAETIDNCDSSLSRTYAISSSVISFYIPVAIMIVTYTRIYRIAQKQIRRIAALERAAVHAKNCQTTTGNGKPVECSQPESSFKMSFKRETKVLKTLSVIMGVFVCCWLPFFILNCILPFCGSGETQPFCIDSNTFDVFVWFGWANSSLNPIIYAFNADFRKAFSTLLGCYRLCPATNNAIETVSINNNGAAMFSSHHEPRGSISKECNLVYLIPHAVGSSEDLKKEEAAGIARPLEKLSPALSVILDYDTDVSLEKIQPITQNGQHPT
T5 sequence (P28223 whole entry): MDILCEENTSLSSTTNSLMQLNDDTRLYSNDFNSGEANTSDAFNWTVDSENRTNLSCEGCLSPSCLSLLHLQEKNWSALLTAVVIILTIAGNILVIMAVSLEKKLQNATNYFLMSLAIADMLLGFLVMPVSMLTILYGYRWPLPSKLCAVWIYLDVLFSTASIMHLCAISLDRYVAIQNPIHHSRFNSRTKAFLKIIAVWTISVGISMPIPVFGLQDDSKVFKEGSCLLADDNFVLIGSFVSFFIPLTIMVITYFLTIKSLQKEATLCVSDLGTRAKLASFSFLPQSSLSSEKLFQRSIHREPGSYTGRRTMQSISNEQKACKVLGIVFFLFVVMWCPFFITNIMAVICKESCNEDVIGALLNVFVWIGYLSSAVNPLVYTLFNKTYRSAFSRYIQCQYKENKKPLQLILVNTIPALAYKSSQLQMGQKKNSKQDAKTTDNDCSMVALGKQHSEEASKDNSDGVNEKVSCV

| Compound | AC50 [1] | AC50 [2] | AC50 [3] | AC50 [4] | AC50 [5] | AC50 [6] | AC50 [7] | AC50 [8] | AC50 [9] | AC50 [10] | AC50 [11] | AC50 [12] | AC50 [13] | AC50 [14] | AC50 [15] |
| --- | --- | --- | --- | --- | --- | --- | --- | --- | --- | --- | --- | --- | --- | --- | --- |
| Cn1cnc2c(F)c(Nc3ccc(Br)cc3Cl)c(C(=O)NOCCO)cc21 [SELUMETINIB] | > 10 µM | > 30 µM | > 10 µM |  |  |  |  |  |  |  |  |  |  |  |  |
| O=C1CN=C(c2ccccn2)c2cc(Br)ccc2N1 [BROMAZEPAM] | > 10 µM | > 30 µM |  | > 30 µM | > 30 µM | > 10 µM | > 10 µM | > 10 µM | > 10 µM | > 10 µM | > 10 µM | > 10 µM | > 10 µM |  |  |
| CC(=O)OCC(=O)[C@@]1(O)[C@H](C)C[C@H]2[C@@H]3CCC4=CC(=O)C=C[C@]4(C)[C@@]3(F)[C@@H](O)C[C@@]21C [DEXAMETHASONE ACETATE] | > 10 µM | > 30 µM | > 10 µM |  | > 30 µM |  | > 10 µM |  | > 10 µM |  |  | > 30 µM | > 10 µM | 20 µM | > 30 µM |
| O=C(O)c1ccccc1Nc1cc(Cl)ccc1C(=O)O [LOBENZARIT] |  |  |  | > 30 µM | > 30 µM |  | > 30 µM | > 30 µM |  | > 30 µM | > 30 µM |  | > 30 µM | > 30 µM | > 30 µM |
| Cn1c(=O)cc(N2CCC[C@@H](N)C2)n(Cc2ccccc2C#N)c1=O [ALOGLIPTIN] |  | 8.8 µM | > 10 µM |  |  | > 10 µM |  | > 30 µM |  |  |  | > 30 µM | > 10 µM |  | > 30 µM |
| CCC(COC(=O)c1cc(OC)c(OC)c(OC)c1)(c1ccccc1)N(C)C (stereo not given) [TRIMEBUTINE] |  |  |  | > 30 µM | > 30 µM |  | > 30 µM |  | > 30 µM | > 30 µM | > 30 µM |  | > 30 µM | > 30 µM | > 30 µM |
| CCCCCC(=O)O[C@]1(C(C)=O)CC[C@H]2[C@@H]3CCC4=CC(=O)CC[C@]4(C)[C@H]3CC[C@@]21C [HYDROXYPROGESTERONE CAPROATE] | > 30 µM |  |  | > 30 µM | > 30 µM | > 30 µM | > 30 µM | > 30 µM |  | > 30 µM | > 30 µM | > 30 µM | 28.1 µM | > 30 µM |  |
| CCN(CC)CCN1C(=O)CN=C(c2ccccc2F)c2cc(Cl)ccc21 [FLURAZEPAM] | > 10 µM | > 30 µM | 5.47 µM | > 30 µM |  | > 10 µM | > 30 µM | > 30 µM |  |  |  | > 30 µM | > 10 µM |  |  |
| Oc1ccc2c(c1)[C@@]13CCCC[C@@]1(O)[C@@H](C2)N(CC1CCC1)CC3 [BUTORPHANOL] |  |  |  | > 30 µM | > 30 µM |  | > 30 µM | > 30 µM | > 30 µM | > 30 µM | > 30 µM |  | > 30 µM | > 30 µM | > 30 µM |
| CCN(CC)C(=O)Nc1ccc(OCC(O)CNC(C)(C)C)c(C(C)=O)c1 (stereo not given) [CELIPROLOL] |  |  |  | > 30 µM | > 30 µM |  | > 30 µM | > 30 µM | > 30 µM | > 30 µM | > 30 µM |  | > 30 µM | > 30 µM | > 30 µM |
| C=C1/C(=C\C=C2/CCC[C@]3(C)[C@@H]([C@H](C)/C=C/[C@@H](O)C4CC4)CC[C@@H]23)C[C@@H](O)C[C@@H]1O [CALCIPOTRIENE] | 29 µM |  | > 30 µM |  |  | > 30 µM | > 30 µM | > 10 µM |  | > 30 µM | > 30 µM |  | > 30 µM |  | > 30 µM |
| Cc1ncc2n1-c1ccc(Cl)cc1C(c1ccccc1F)=NC2 [MIDAZOLAM] | > 10 µM | > 30 µM | > 10 µM | > 30 µM |  | > 10 µM | > 30 µM | > 30 µM |  |  |  | > 30 µM | > 10 µM |  |  |
| COc1ccc(-c2noc(CC(=O)O)c2-c2ccc(OC)cc2)cc1 [MOFEZOLAC] |  |  |  | > 30 µM | > 30 µM |  | > 30 µM |  |  | > 30 µM | > 30 µM |  | > 30 µM | > 30 µM | > 30 µM |
| CC(=O)O[C@H](CC(=O)[O-])C[N+](C)(C)C [ACETYLCARNITINE] |  |  |  | > 30 µM | > 30 µM |  | > 30 µM | > 30 µM |  | > 30 µM | > 30 µM |  | > 30 µM | > 30 µM | > 30 µM |
